# Measured values from ChEMBL document CHEMBL1201862, “PubChem BioAssay data set” (2004).
#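 96-well plates; 48 h exposure; 5 concentrations. Endpoints by linear interpolation between flanking doses. Not reached: highest tested concentration assigned. At the GI50, growth is halved.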 Calls of active or inactive are those of the source. Cut-off read from the data, not from the text of the source: active = GI50 up to about 1.1 µM and inactive = higher.
# How the values were obtained:
# Test in all cases: NCI anticancer screen, dose series, 48 h
# [1] = test system: SF-539
# [2] = test system: HCT-116
# [3] = test system: SW-620
# [4] = test system: HOP-62
# [5] = test system: CCRF-CEM
# [6] = test system: A498
# [7] = test system: SK-MEL-5
# [8] = test system: SK-MEL-28
# [9] = test system: NCI-H23
# [10] = test system: EKVX
# [11] = test system: OVCAR-3
# [12] = test system: MOLT-4
# [13] = test system: KM12
# [14] = test system: HCT-15
# [15] = test system: OVCAR-5
# [16] = test system: HOP-92
# [17] = test system: SF-295
# [18] = test system: UACC-257
# [19] = test system: LOX IMVI
Structure (SMILES),GI50 [1],GI50 [2],GI50 [3],GI50 [4],GI50 [5],GI50 [6],GI50 [7],GI50 [8],GI50 [9],GI50 [10],GI50 [11],GI50 [12],GI50 [13],GI50 [14],GI50 [15],GI50 [16],GI50 [17],GI50 [18],GI50 [19]
COC(=O)C1(C)NCCc2c1[nH]c1ccccc21 (stereo unspecified),> 100 µM (inactive),> 100 µM (inactive),> 100 µM (inactive),> 100 µM (inactive),> 100 µM (inactive),> 100 µM (inactive),> 100 µM (inactive),> 100 µM (inactive),> 100 µM (inactive),> 100 µM (inactive),> 100 µM (inactive),> 100 µM (inactive),> 100 µM (inactive),> 100 µM,> 100 µM (inactive),> 100 µM (inactive),> 100 µM (inactive),,
C=C1CCc2ccccc2C1=O,> 100 µM (inactive),> 100 µM (inactive),> 100 µM (inactive),> 100 µM (inactive),45.8 µM (inactive),> 100 µM (inactive),> 100 µM (inactive),,> 100 µM (inactive),> 100 µM (inactive),> 100 µM (inactive),64.7 µM (inactive),> 100 µM (inactive),> 100 µM,> 100 µM (inactive),> 100 µM (inactive),51.3 µM (inactive),> 100 µM (inactive),
CN(C)C(=N)c1ccccc1,> 100 µM (inactive),> 100 µM (inactive),> 100 µM (inactive),> 100 µM (inactive),,,,> 100 µM (inactive),> 100 µM (inactive),,> 100 µM (inactive),,> 100 µM (inactive),,> 100 µM (inactive),> 100 µM (inactive),> 100 µM (inactive),> 100 µM (inactive),> 100 µM (inactive)
C[C@]12CC[C@@H]3c4ccc(OC(=O)c5ccccc5)cc4CC[C@H]3[C@@H]1CC[C@@H]2Oc1c2ccccc2nc2ccccc12,,7.8 µM (inactive),16.9 µM (inactive),8.17 µM (inactive),0.0161 µM (active),17.4 µM (inactive),8.61 µM (inactive),12 µM (inactive),12.4 µM (inactive),1.52 µM (inactive),7.66 µM (inactive),8.87 µM (inactive),14 µM (inactive),9.73 µM,16.6 µM (inactive),12.9 µM (inactive),16 µM (inactive),13.6 µM (inactive),7.85 µM (inactive)
CCc1ccccc1N1C(=O)C(=O)C(c2nc3ccccc3s2)C(=O)C1=O,> 100 µM (inactive),48.3 µM (inactive),83.8 µM (inactive),> 100 µM (inactive),37.6 µM (inactive),,92 µM (inactive),> 100 µM (inactive),66.2 µM (inactive),> 100 µM (inactive),80.4 µM (inactive),42.2 µM (inactive),> 100 µM (inactive),> 100 µM,> 100 µM (inactive),> 100 µM (inactive),83 µM (inactive),> 100 µM (inactive),> 100 µM (inactive)
N#CC(C#N)=c1ccc(=C2N3CCCC3CN2C23CC4CC(CC(C4)C2)C3)cc1 (stereo unspecified),> 100 µM (inactive),> 100 µM (inactive),> 100 µM (inactive),24.4 µM (inactive),> 100 µM (inactive),,> 100 µM (inactive),69.3 µM (inactive),> 100 µM (inactive),> 100 µM (inactive),> 100 µM (inactive),> 100 µM (inactive),> 100 µM (inactive),> 100 µM,> 100 µM (inactive),> 100 µM (inactive),> 100 µM (inactive),> 100 µM (inactive),> 100 µM (inactive)
Cc1ccc(S(=O)(=O)N/N=C2\C(=O)C3CC2C(Cl)C3Cl)cc1 (stereo unspecified),,> 100 µM (inactive),> 100 µM (inactive),> 100 µM (inactive),> 100 µM (inactive),> 100 µM (inactive),> 100 µM (inactive),> 100 µM (inactive),> 100 µM (inactive),,> 100 µM (inactive),> 100 µM (inactive),,> 100 µM,> 100 µM (inactive),70.8 µM (inactive),> 100 µM (inactive),> 100 µM (inactive),> 100 µM (inactive)
CC(=O)Oc1c(C)cc(-c2cc(C)c(OC(C)=O)c(C)c2)cc1C,,41.1 µM (inactive),10.2 µM (inactive),45.7 µM (inactive),31 µM (inactive),,25.4 µM (inactive),27.6 µM (inactive),15.4 µM (inactive),37.3 µM (inactive),90.2 µM (inactive),> 100 µM (inactive),17.9 µM (inactive),20.3 µM,43.7 µM (inactive),36.3 µM (inactive),23.7 µM (inactive),41.6 µM (inactive),17.2 µM (inactive)
COc1ccc(CNC(=O)NCn2cc(-c3ccccc3)nn2)cc1,> 100 µM (inactive),> 100 µM (inactive),> 100 µM (inactive),> 100 µM (inactive),> 100 µM (inactive),,> 100 µM (inactive),> 100 µM (inactive),> 100 µM (inactive),> 100 µM (inactive),,> 100 µM (inactive),> 100 µM (inactive),> 100 µM,> 100 µM (inactive),> 100 µM (inactive),> 100 µM (inactive),> 100 µM (inactive),> 100 µM (inactive)
C[n+]1c2ccccc2c(CNC(CS)C(=O)O)c2ccccc21 (stereo unspecified),18.4 µM (inactive),17.5 µM (inactive),32.4 µM (inactive),15.5 µM (inactive),24.4 µM (inactive),17.2 µM (inactive),> 10 µM (inactive),,25.9 µM (inactive),19 µM (inactive),24.4 µM (inactive),12.4 µM (inactive),19.7 µM (inactive),20.7 µM,44.5 µM (inactive),18.7 µM (inactive),24.2 µM (inactive),38.5 µM (inactive),
Nc1ncnc2c1ncn2C1OC(COC2C(CO)OC(OC(C(=O)O)C(O)C(OP(=O)(O)O)C(O)C(=O)O)C(O)C2O)C(O)C1O (stereo unspecified),90.2 µM (inactive),> 100 µM (inactive),> 100 µM (inactive),> 100 µM (inactive),> 100 µM (inactive),> 100 µM (inactive),> 100 µM (inactive),> 100 µM (inactive),> 100 µM (inactive),> 100 µM (inactive),> 100 µM (inactive),> 100 µM (inactive),> 100 µM (inactive),> 100 µM,> 100 µM (inactive),,> 100 µM (inactive),> 100 µM (inactive),> 100 µM (inactive)
O=C(Nc1ccccc1C(=O)O)C(=O)C(C(=O)c1ccccc1-c1ccccc1)C1OC(=O)c2ccccc21 (stereo unspecified),16.6 µM (inactive),22 µM (inactive),27.3 µM (inactive),18 µM (inactive),22.1 µM (inactive),19.3 µM (inactive),19.2 µM (inactive),19.4 µM (inactive),22.8 µM (inactive),23.4 µM (inactive),16.6 µM (inactive),21.8 µM (inactive),18 µM (inactive),16.5 µM,23.6 µM (inactive),,25.2 µM (inactive),16.7 µM (inactive),18.7 µM (inactive)
CC1=N/C(=C\c2cccc3ccccc23)C(=O)O1,> 100 µM (inactive),> 100 µM (inactive),> 100 µM (inactive),> 100 µM (inactive),> 100 µM (inactive),> 100 µM (inactive),> 100 µM (inactive),> 100 µM (inactive),> 100 µM (inactive),> 100 µM (inactive),,> 100 µM (inactive),> 100 µM (inactive),> 100 µM,> 100 µM (inactive),> 100 µM (inactive),> 100 µM (inactive),> 100 µM (inactive),
COC(=O)[C@@H]1[C@H](O)CCC2=C(CC(=O)c3ccoc3)[C@H](C)CC[C@]21C,> 50 µM (inactive),22.6 µM (inactive),36.9 µM (inactive),> 50 µM (inactive),,> 50 µM (inactive),18.1 µM (inactive),> 50 µM (inactive),30.3 µM (inactive),> 50 µM (inactive),26.2 µM (inactive),,36.1 µM (inactive),46.1 µM,> 50 µM (inactive),> 50 µM (inactive),31.4 µM (inactive),22.9 µM (inactive),27.5 µM (inactive)
O=C(CC1Sc2ccccc2NC1=O)Nc1ccc([N+](=O)[O-])cc1[N+](=O)[O-] (stereo unspecified),,16 µM (inactive),18.4 µM (inactive),40.6 µM (inactive),15.6 µM (inactive),,15.8 µM (inactive),17.7 µM (inactive),13.1 µM (inactive),32.2 µM (inactive),16.3 µM (inactive),20.1 µM (inactive),21.7 µM (inactive),,29.2 µM (inactive),11 µM (inactive),16.8 µM (inactive),19.9 µM (inactive),16.2 µM (inactive)
CC1(C)[N+]([O-])=[N+]([O-])C1(C)Br (stereo unspecified),> 100 µM (inactive),> 100 µM (inactive),> 100 µM (inactive),> 100 µM (inactive),> 100 µM (inactive),,> 100 µM (inactive),> 100 µM (inactive),> 100 µM (inactive),> 100 µM (inactive),> 100 µM (inactive),> 100 µM (inactive),> 100 µM (inactive),> 100 µM,> 100 µM (inactive),,82.4 µM (inactive),> 100 µM (inactive),> 100 µM (inactive)
